Counter-ions that a name gives are not always drawn. Like-named read-outs stand apart in the source and are kept apart here. One block for each compound: values may come before it.
Key:
Solubility = assay type: physicochemical
Acute toxicity, oral = assay: Acute toxicity, oral; design: species or system mice; conditions: mouse, in vivo, mortality during 7 days
Experimental: The test was carried out on male mice (CD1 Charles Rivers), of 22 to 24 g, having fasted for 16 hours. […] The mortality is noted during the 7 days following the treatment.

[1] = system: ileum isolated from guinea-pig; assay: Test of ileum isolated from guinea-pig, agonist (contracting) activity; conditions: Cavia porcellus; negative logarithm of the dose which produces 50% of the maximum effect; read-out: pD2 (converted)
Experimental: Pieces of ileum are removed from guinea-pigs killed by decapitation. The isolated ileum is placed in 10 cm^3 of Tyrode solution at 37° C. and aerated with a mixture of oxygen (95%) and carbon dioxide gas (5%). The contractions due to the products are registered by means of a detector connected to a polygraph. The products to be tested are added at concentrations between 1.10^-3 M and 1.10^-8 M/l.
The products presenting a contracting effect are tested vis-a-vis atropine and hexamethonium in order to establish if the activity is of "muscarine" or "nicotine" type.
The agonist activity is expressed in pD2 (negative logarithm of the dose which produces 50% of the maximum effect).

Diarrhoeic activity = assay: Diarrhoeic activity; design: species or system mice; conditions: mouse, in vivo; oral route; dose which causes diarrhoea in 50% of the animals; read-out: DE50 (the source's name)
Experimental: The test is carried out on male mice (CD1 Charles Rivers) weighing […], after fasting for 6 hours. The product dissolved at 5% in methocel is administered by oral route by means of an oesophage probe.
Control animals receive only the excipient.
After treatment, the animals are placed separately in cages of which the base is covered with blotting paper, and they are put under observation for 30, 60, 120 and 180 minutes.
The sheets of absorbent paper are changed after each observation.
The consistency of the feces is evaluated according to the method of Randall and Baruth (Arch. Int. Pharmacodyn. 220, 94, 1976) according to the following scale of values.
1: feces slightly soft, with or without a damp halo
2: feces slightly soft, with a well defined circle of humidity.
3: feces soft with a large circle of humidity.
4: feces without consistency with a very large circle of humidity.
For each product, the dose is noted which causes diarrhoea in 50% of the animals according to the method of Miller and Tainter (Proc. Soc. Exp. Biol. Med., 57, 261, 1944).

[2] = system: male mice (CD1 Charles RAivers); assay: Hypothermic activity; assay type: in vivo; conditions: Mus musculus, read-out: Effective dose (-1° C.)
Experimental: (§1) The test is carried out on male mice (CD1 Charles RAivers) weighing 25-30 g, having fasted for 6 hours.
The temperature of the body is noted by means of a thermocouple inserted about 1.5 cm in the rectum and connected to an electric temperature recorder.
The products are administered by oral or sub-cutaneous route and the temperatures are noted at the instant 0 and at 30 minutes, 1 hour, 2 hours and 2 and a half hours after treatment.
The degree of hypothermia is evaluated as the difference between the treated animals and the controls, and the dose necessary to reduce the body temperature by 1° C. is noted.

[3] = system: male mice (CD1 Charles RAivers); assay: Variation of the body temperature (duration of action); assay type: in vivo
Experimental: as §1
The temperature of the body is noted by means of a thermocouple inserted about 1.5 cm in the rectum and connected to an electric temperature recorder. […]
The duration of action of the products is determined, using the doses able to reduce the temperature by 1° to 1.5° C.

Solubility in 2N HCl (Solubility; 2N HCl): Soluble | Solubility in 2N NaOH (Solubility; 2N NaOH): Soluble | Solubility in water (Solubility; H2O): Soluble
Compound: CON=CC1=CCCN(OC)C1 [Example 2, Hydrochloride of the methyl ether of 1-methoxy-1,2,5,6-tetrahydropyridin-3-carboxaldehyde oxime]

Compound: CCOC(=O)ON1CCC=C(C=NOC)C1 [Example 6, Methyl ether of 1-ethoxy carbonyloxy-1,2,5,6-tetrahydropyridin-3-carboxaldehyde oxime]
LD50 at 168 h (Acute toxicity, oral): 125 mg/kg | EC50 [1]: 11.5 µM | ED50 (Diarrhoeic activity): 0.6 mg/kg | ED (-1 C) ([2]; O.R. (oral route)): 0.26 mg/kg | ED (-1 C) ([2]; SC.R (sub-cutaneous route)): 0.24 mg/kg | Variations of the body temperature ([3]; os, 0.35 mg/kg, 30 min): -1.3 °C | Variations of the body temperature ([3]; os, 0.35 mg/kg, 60 min): -1.1 °C | Variations of the body temperature ([3]; os, 0.35 mg/kg, 120 min): -0.1 °C | Variations of the body temperature ([3]; sc, 0.35 mg/kg, 30 min): -1.4 °C | Variations of the body temperature ([3]; sc, 0.35 mg/kg, 60 min): -1.1 °C | Variations of the body temperature ([3]; sc, 0.35 mg/kg, 120 min): -0.1 °C | Variations of the body temperature ([3]; sc, 0.35 mg/kg, 180 min): +0.1 °C

Compound: CON=CC1=CCCN(O)C1 [Example 1, Hydrochloride of the methyl ether of 1-hydroxy-1,2,5,6-tetrahydropyridin-3-carboxaldehyde oxime]
LD50 at 168 h (Acute toxicity, oral): 60 mg/kg | EC50 [1]: 4.17 µM | ED50 (Diarrhoeic activity): 0.5 mg/kg | ED (-1 C) ([2]; O.R. (oral route)): 0.19 mg/kg | ED (-1 C) ([2]; SC.R (sub-cutaneous route)): 0.2 mg/kg | Variations of the body temperature ([3]; os, 0.25 mg/kg, 30 min): -1.4 °C | Variations of the body temperature ([3]; os, 0.25 mg/kg, 60 min): -1.2 °C | Variations of the body temperature ([3]; os, 0.25 mg/kg, 120 min): -0.1 °C | Variations of the body temperature ([3]; os, 0.25 mg/kg, 180 min): -0.1 °C | Variations of the body temperature ([3]; sc, 0.25 mg/kg, 30 min): -1.4 °C | Variations of the body temperature ([3]; sc, 0.25 mg/kg, 60 min): -1.1 °C | Variations of the body temperature ([3]; sc, 0.25 mg/kg, 120 min): -0.1 °C | Variations of the body temperature ([3]; sc, 0.25 mg/kg, 180 min): -0.1 °C

Compound: COC(=O)C1=CCCN(C)C1 [Arecoline HBr, reference compound]
ED (-1 C) ([2]; O.R. (oral route)): 194 mg/kg | ED (-1 C) ([2]; SC.R (sub-cutaneous route)): 3 mg/kg | Variations of the body temperature ([3]; os, 200 mg/kg, 30 min): -1.1 °C | Variations of the body temperature ([3]; os, 200 mg/kg, 60 min): -1.0 °C | Variations of the body temperature ([3]; os, 200 mg/kg, 120 min): -0.2 °C | Variations of the body temperature ([3]; os, 200 mg/kg, 180 min): -0.1 °C | Variations of the body temperature ([3]; sc, 3.5 mg/kg, 30 min): -1.5 °C | Variations of the body temperature ([3]; sc, 3.5 mg/kg, 60 min): -0.1 °C | Variations of the body temperature ([3]; sc, 3.5 mg/kg, 120 min): +0.2 °C | Variations of the body temperature ([3]; sc, 3.5 mg/kg, 180 min): +0.2 °C

Compound: CON=CC1=CCCN(OC(=O)Nc2ccccc2)C1 [Example 13, Methyl ether of 1-phenylaminocarbonyloxy 1,2,5,6-tetrahydropyridin-3-carboxaldehyde oxime]
LD50 at 168 h (Acute toxicity, oral): 250 mg/kg | EC50 [1]: > 100 µM | ED50 (Diarrhoeic activity): 5 mg/kg | ED (-1 C) ([2]; O.R. (oral route)): 0.74 mg/kg | ED (-1 C) ([2]; SC.R (sub-cutaneous route)): 0.43 mg/kg | Variations of the body temperature ([3]; os, 1. mg/kg, 30 min): -1.4 °C | Variations of the body temperature ([3]; os, 1. mg/kg, 60 min): -1.1 °C | Variations of the body temperature ([3]; os, 1. mg/kg, 120 min): -0.1 °C | Variations of the body temperature ([3]; os, 1. mg/kg, 180 min): +0. °C. | Variations of the body temperature ([3]; sc, 0.5 mg/kg, 30 min): -1.2 °C | Variations of the body temperature ([3]; sc, 0.5 mg/kg, 60 min): -1.2 °C | Variations of the body temperature ([3]; sc, 0.5 mg/kg, 120 min): -0.1 °C

Compound: CON=CC1=CCCN(OC(=O)Nc2ccc(Cl)cc2)C1 [Example 14, Methyl ether of 1-(4-chlorophenylaminocarbonyloxy)-1,2,5,6-tetrahydropyridin-3-carboxaldehyde oxime]
LD50 at 168 h (Acute toxicity, oral): > 1000 mg/kg | EC50 [1]: > 100 µM | ED50 (Diarrhoeic activity): 10 mg/kg | ED (-1 C) ([2]; O.R. (oral route)): 1.8 mg/kg | ED (-1 C) ([2]; SC.R (sub-cutaneous route)): 1.8 mg/kg | Variations of the body temperature ([3]; os, 2.5 mg/kg, 30 min): -1.3 °C | Variations of the body temperature ([3]; os, 2.5 mg/kg, 60 min): -1.5 °C | Variations of the body temperature ([3]; os, 2.5 mg/kg, 120 min): -0.3 °C | Variations of the body temperature ([3]; os, 2.5 mg/kg, 180 min): +0.1 °C | Variations of the body temperature ([3]; sc, 2.5 mg/kg, 30 min): -0.4 °C | Variations of the body temperature ([3]; sc, 2.5 mg/kg, 60 min): -1.5 °C | Variations of the body temperature ([3]; sc, 2.5 mg/kg, 120 min): -1.3 °C | Variations of the body temperature ([3]; sc, 2.5 mg/kg, 180 min): -0.2 °C

Compound: CON=CC1=CCCN(OC(=O)Nc2ccc(C(C)C)cc2)C1 [Example 15, Methyl ether of 1-(4-isopropylphenylaminocarbonyloxy) 1,2,5,6-tetrahydropyridin-3-carboxaldehyde oxime]
LD50 at 168 h (Acute toxicity, oral): 350 mg/kg | EC50 [1]: > 100 µM | ED50 (Diarrhoeic activity): 20 mg/kg | ED (-1 C) ([2]; O.R. (oral route)): 1.9 mg/kg | ED (-1 C) ([2]; SC.R (sub-cutaneous route)): 2.4 mg/kg | Variations of the body temperature ([3]; os, 2. mg/kg, 30 min): -0.8 °C | Variations of the body temperature ([3]; os, 2. mg/kg, 60 min): -1.0 °C | Variations of the body temperature ([3]; os, 2. mg/kg, 120 min): +0. °C. | Variations of the body temperature ([3]; os, 2. mg/kg, 180 min): +0.1 °C | Variations of the body temperature ([3]; sc, 4. mg/kg, 30 min): -0.5 °C | Variations of the body temperature ([3]; sc, 4. mg/kg, 60 min): -1.5 °C | Variations of the body temperature ([3]; sc, 4. mg/kg, 120 min): -1.5 °C | Variations of the body temperature ([3]; sc, 4. mg/kg, 180 min): -0.3 °C

Compound: CON=CC1=CCCN(OC(=O)Nc2ccc(OC)cc2)C1 [Example 16, Methyl ether of 1-paramethoxyphenylaminocarbonyloxy-1,2,5,6-tetrahydropyridin-3-carboxaldehyde oxime]
LD50 at 168 h (Acute toxicity, oral): 60 mg/kg | EC50 [1]: > 100 µM | ED50 (Diarrhoeic activity): 6 mg/kg | ED (-1 C) ([2]; O.R. (oral route)): 0.88 mg/kg | ED (-1 C) ([2]; SC.R (sub-cutaneous route)): 0.78 mg/kg | Variations of the body temperature ([3]; os, 1. mg/kg, 30 min): -1.1 °C | Variations of the body temperature ([3]; os, 1. mg/kg, 60 min): -1.1 °C | Variations of the body temperature ([3]; os, 1. mg/kg, 120 min): -0.1 °C | Variations of the body temperature ([3]; sc, 1. mg/kg, 30 min): -1.2 °C | Variations of the body temperature ([3]; sc, 1. mg/kg, 60 min): -1.5 °C | Variations of the body temperature ([3]; sc, 1. mg/kg, 120 min): -0.3 °C | Variations of the body temperature ([3]; sc, 1. mg/kg, 180 min): +0.1 °C

Compound: CCCNC(=O)ON1CCC=C(C=NOC)C1 [Example 10, Methyl ether of 1-propyl aminocarbonyloxy-1,2,5,6-tetrahydropyridin-3-carboxyaldehyde oxime]
LD50 at 168 h (Acute toxicity, oral): 125 mg/kg | EC50 [1]: > 100 µM | ED50 (Diarrhoeic activity): 20 mg/kg | ED (-1 C) ([2]; O.R. (oral route)): 1.4 mg/kg | ED (-1 C) ([2]; SC.R (sub-cutaneous route)): 1.3 mg/kg | Variations of the body temperature ([3]; os, 1.56 mg/kg, 30 min): -1.2 °C | Variations of the body temperature ([3]; os, 1.56 mg/kg, 60 min): -1.0 °C | Variations of the body temperature ([3]; os, 1.56 mg/kg, 120 min): -0.1 °C | Variations of the body temperature ([3]; os, 1.56 mg/kg, 180 min): +0.1 °C | Variations of the body temperature ([3]; sc, 1.56 mg/kg, 30 min): -1.2 °C | Variations of the body temperature ([3]; sc, 1.56 mg/kg, 60 min): -1.1 °C | Variations of the body temperature ([3]; sc, 1.56 mg/kg, 180 min): +0.1 °C

Compound: CON=CC1=CCCN(OC(=O)c2ccccc2)C1 [Example 7, Methyl ether of 1-benzoyloxy-1,2,5,6-tetrahydropyridin-3-carboxaldehyde oxime]
LD50 at 168 h (Acute toxicity, oral): 90 mg/kg | EC50 [1]: > 100 µM | ED50 (Diarrhoeic activity): 1.5 mg/kg | ED (-1 C) ([2]; O.R. (oral route)): 0.42 mg/kg | ED (-1 C) ([2]; SC.R (sub-cutaneous route)): 0.21 mg/kg | Variations of the body temperature ([3]; os, 0.5 mg/kg, 30 min): -1.1 °C | Variations of the body temperature ([3]; os, 0.5 mg/kg, 60 min): -0.9 °C | Variations of the body temperature ([3]; os, 0.5 mg/kg, 180 min): +0.1 °C | Variations of the body temperature ([3]; sc, 0.25 mg/kg, 30 min): -1.2 °C | Variations of the body temperature ([3]; sc, 0.25 mg/kg, 60 min): -0.9 °C | Variations of the body temperature ([3]; sc, 0.25 mg/kg, 180 min): +0.1 °C
